In one assay the test system is IL-6. Description: LPS-induced IL-6 release by human PBMC (sandwich ELISA). Format: cell-based. Conditions: 18-24 h, peptide 10 nM-100 µM in triplicate, IC50 estimated from graph. As to the method:
(§1) Cytokine Assays: One-hundred µL of PBMC (2 x 10^6/ml in Complete Medium) were added to each well of a flat-bottom, 96-well tissue culture plate. To each well was then added 50 µL of media or peptide (4X desired final concentration; in Complete Medium) and 50 µL of lipopolysaccharide (LPS; S. typhosa; Sigma, St. Louis, MO; 400 ng/ml Complete Medium). Each peptide was tested in triplicate at 5 log10 concentrations ranging from 100 µM to 10 nM. Plates were incubate 18-24 h at 37°C in 5% humidified CO2. Plates were then centrifuged and 100 µL of supernatant removed from each well and stored frozen at -80°C until assayed. Cytokines (TNF-α, IL-1β, IL-6, GM-CSF) were measured by sandwich ELISA assays (R & D Systems; Minneapolis, MN) using the manufacturer’s instructions. The released cytokine concentration was determined from a standard curve using recombinant cytokine provided with each kit.

The next assay concerns LTB4. Description: Zymosan-induced LTB4 release by adherent human PBMC. In kind it is cell-based. Particulars: 1 h peptide then Zymosan 90 min, IC50 estimated from graph. As to the method: Platelet Activating Factor (PAF) and Leukotriene B4 (LTB4) Assays: PBMC were prepared as described above and adjusted to 3.3 x 10^6 cells/ml in RPMI-1640 medium containing 5 mg/ml HSA (Sigma, St. Louis, MO). To each well of a 48-well tissue culture plate was added 0.3 ml of cell suspension. The plate was incubated for 2 h at 37°C and 5% CO2 to allow cells to adhere. The wells were then washed 3X with HHBSS (Hank’s Balanced Salt Solution with 5 mg/ml HSA) at room temperature (RT). One-hundred seventy-five µL of HHBSS or test material in HHBSS was then added to each well and the plates incubated for 1 h at 37°C and 5% CO2. Samples were set up in quadruplicate. To each of duplicate wells for each sample was then added 175 µL of HHBSS or HHBSS containing 600 µg/ml of Zymosan (Sigma, St. Louis, MO). The plates were then incubated for 90 min at 37°C and 5% CO2. The plates were centrifuged and supernatants removed for quantitation of PAF or LTB4 according to the kit manufacturer’s (Amersham Pharmacia; Piscataway, NJ) instructions. The released PAF or LTB4 concentration was determined from a standard curve using standards provided with each kit.

The subject of the next assay is TF. In words: Monocyte-associated tissue factor (TF) ELISA. Format: cell-based. Particulars: human PBMC cultured 18-24 h with LPS; cell lysate, IMMUBIND Tissue Factor ELISA; IC50 estimated from graph. The method, then: Tissue Factor (TF): Monocyte-associated TF was quantitated in the following manner. PBMC were cultured in 48-well tissue culture plates as described below for PAF and LTB4 assays. At the end of the culture period (18-24 h) the supernatants were removed and stored frozen for cytokine assays. The wells of the plates were washed once with PBS and to each well was added 100 µL of Triton X-100 (10% [v/v] in H2O; Sigma, St. Louis, MO). The plates were placed on an orbital shaker for 12-18 h at 4°C and a speed of ~ 125 rpm. To each well was added 900 µL of sample buffer (10 mM PBS, pH 7.4, with 1% [w/v] BSA). The contents of each well were mixed well and removed for quantitation of TF using an IMMUBIND® Tissue Factor ELISA kit (American Diagnostica; Stamford, CT) according to the manufacturer’s instructions. Samples were diluted 1:10 in sample buffer prior to being assayed.

Another assay has as its system Chemotaxis. Description: Monocyte and neutrophil chemotaxis to FMLP (micro-chemotaxis chamber). Format: cell-based, human. Conditions: cells pre-incubated 60 min at 37°C with peptide (10 nM-100 µM), FMLP 10^-8 or 10^-9 M, 90 min, triplicate. The method, then:
Monocyte and Neutrophil Chemotaxis: For monocyte chemotaxis, PBMC were prepared as described above but washed and resuspended to 2 x 10^6/ml in HBSS (10 mM HEPES, 0.5% BSA [low-endotoxin; Sigma, St. Louis, MO], pH 7.0). The percentage of monocytes in the cell preparation was determined by myeloperoxidase staining of fixed, cytospin-prepared slides and usually ranged between 15-25%. For neutrophil chemotaxis, neutrophils were prepared as described above and routinely contained 97-99% neutrophils. Effects of test materials on chemotaxis were measured using 48-well micro-chemotaxis chambers (Neuro-Probe; Cabin John, MD). Briefly, to 450 µL of cell suspension in a polypropylene centrifuge tube was added 50 µL of buffer or test material. Each sample was tested in triplicate. The tubes were then incubated for 60 min at 37°C in a shaking water bath. […] The stained filters were mounted on slides and the number of cells migrating though the filters determined under 600X magnification for 5 fields/well. Inhibition of chemotaxis was determined using that slide for which the positive control (untreated cells; either 10^-8 or 10^-9 M FMLP) gave the strongest response and was calculated in the following manner: […]

The test system of the next assay is TNF-α. Description: LPS-induced TNF-α release by human PBMC (sandwich ELISA). In kind it is cell-based. Conditions: human PBMC + LPS (S. typhosa), 18-24 h, 37°C, peptide 10 nM-100 µM in triplicate, IC50 estimated from graph, representative set, one volunteer. The method, then:
as §1

The subject of another assay is HUVEC. Description: [125I]-MN20054 binding/uptake by HUVEC. Particulars: 100-fold excess unlabeled peptide, 60 min; for inhibition of association of [125I]-MN20054 with HUVEC: 37°C, triplicate wells (Figure 6C). Set-up: species or system human. The method, then: For binding/uptake studies on endothelial cell, HUVEC were grown to confluence in 12-well tissue culture plates. Forty pmol of [^125I]-MN20054 (∼20 Ci/mmol) in PBS with 0.5% BSA, pH 7.5, was added in a volume of 1.0 ml in the presence or absence of a 100-fold excess of the indicated competitor. The plates were allowed to incubate for 1 h at 37°C on a rocking platform and the wells were aspirated and washed 3X with 2.0 ml of ice-cold PBS/BSA. One ml of 1.0 N NaOH was added to each well for 30 min at RT to solubilize the cells and then 0.9 ml was removed from each well and counted in a gamma scintillation spectrophotometer.

Where a SMILES comes first, the peptide text is derived from it. Bridges are numbered along the chain shown (N, C = ends). Roman numbers before positions name the chains, in order.

Turning to `CC(C)C[C@H](NC(=O)CNC(=O)CNC(=O)[C@H](CCC(=O)O)NC(=O)[C@H](CCCCN)NC(=O)[C@H](CC(C)C)NC(=O)[C@H](Cc1ccccc1)NC(=O)[C@H](CC(C)C)NC(=O)[C@H](CC(C)C)NC(=O)[C@H](CC(=O)O)NC(=O)[C@H](CC(C)C)NC(=O)CNC(=O)[C@H](CCCNC(=N)N)NC(=O)[C@H](CCCNC(=N)N)NC(=O)[C@H](CC(N)=O)NC(=O)[C@H](CCC(N)=O)NC(=O)[C@@H](N)CC(C)C)C(=O)N[C@@H](CSSC[C@H](NC(=O)[C@H](CC(C)C)NC(=O)CNC(=O)CNC(=O)[C@H](CCC(=O)O)NC(=O)[C@H](CCCCN)NC(=O)[C@H](CC(C)C)NC(=O)[C@H](Cc1ccccc1)NC(=O)[C@H](CC(C)C)NC(=O)[C@H](CC(C)C)NC(=O)[C@H](CC(=O)O)NC(=O)[C@H](CC(C)C)NC(=O)CNC(=O)[C@H](CCCNC(=N)N)NC(=O)[C@H](CCCNC(=N)N)NC(=O)[C@H](CC(N)=O)NC(=O)[C@H](CCC(N)=O)NC(=O)[C@@H](N)CC(C)C)C(=O)O)C(=O)O` [MN10021] (I: H-LQNRRGLDLLFLKEGGLC-OH / II: H-LQNRRGLDLLFLKEGGLC-OH; disulfide I:18-II:18), the IC50 in the assay with IL-6 is > 100 µM; with LTB4, 6.2 µM; in the assay on TF, 12.5 µM; in the assay on Chemotaxis it was 0.25 µM; in the assay on TNF-α it was 6.2 µM. In addition, the “inhibition of binding/uptake of [125I]-MN20054 by HUVEC” value in the assay on HUVEC (37°C (Figure 7)) was ~75%. The “inhibition of association of [125I]-MN20054 with HUVEC” value in the assay on HUVEC came out at 77%.

Consider “H-LGGEKLFLLDGRNQLC-OH (disulfide (positions not given here)) [MN20050]”, for which the IC50 in the assay on IL-6, in the assay with LTB4, with TF, in the assay with Chemotaxis and in the assay with TNF-α was > 100 µM each time. In addition, the “inhibition of association of [125I]-MN20054 with HUVEC” value in the assay with HUVEC is on record as “no significant inhibition”.

As a reminder, the IC50 is the concentration that inhibits the measured activity by half.
